Experimental data taken from patent US20100069340A1, “PHARMACEUTICAL COMPOSITIONS OF AN SRC KINASE INHIBITOR AND AN AROMATASE INHIBITOR” (Wyeth, priority 2008, published 2010).
Read-outs that look alike come from different tables or passages of the source.

How the values were obtained:
clinical = conditions: for AUC: Mean steady state AUC; for Cmax: Mean steady state Cmax
Method: A phase 1 single-agent trial of bosutinib to determine the safety, tolerability, and pharmacokinetics of orally administered bosutinib in subjects with advanced-stage, previously treated, solid tumors is currently ongoing. […] Subjects are continued on bosutinib until disease progression, or the occurrence of a significant toxicity considered possibly related to bosutinib. Dosing was started at 50 mg per day. Subsequent dose levels studied have included 100 mg, 200 mg, 300 mg, 400 mg, 500 mg and 600 mg. Safety is assessed for 21 days in 3 to 6 subjects before beginning the cohort at the next incremental dose.

BT474 = assay: Cell proliferation assay (CellTiter Glo), BT474; type: cell-based; conditions: Homo sapiens, BT-474, 168 h, 7 Day assay, charcoal stripped serum, no phenol red
Method: Cell lines were obtained from ATCC. Estrogen was obtained from SIGMA, 4-hydroxytamoxifen was obtained from SIGMA, Bosutinib was used for these studies. Charcoal-stripped serum and phenol red-free medium was obtained from Invitrogen. CellTiter Glo was obtained from Promega.
Cell cultures. Proliferation assays with cells in complete fetal calf serum were performed with medium containing phenol red. For all assays examining estrogen-dependence, cells were cultured in phenol red-free medium; DMEM/F12 (MCF7), RPMI1640 (MDA-MB-361, T47D) MEM (BT20, MDA-MB-231) McCoys5A modified (SKBR3), Leibowitz' L15 medium supplemented with 10 ng/mL insulin (MDA-MB-435 and MDA-MB-468) with 10% fetal bovine serum supplemented with glutamine and gentamicin. For proliferation assays, trypsinized cells were subjected to three cycles of centrifugation and resuspension in phenol red-free medium supplemented with charcoal stripped medium (5% final), glutamine and Pen/Strep. Cells were plated on day 0, with or without estrogen (10 nM final concentration). On day 1, 4-hydroxytamoxifen and SKI-606 or DMSO were added as a serial dilution. Cells were incubated for 7 days, after which CellTiter Glo (Promega) was added as recommended by the manufacturer. After mixing and two hours incubation on the bench, plates were read on an Envision reader. […]

[1] = Phase 2 open-label study of bosutinib, safety (TEAEs); type: in vivo, human; conditions: 400 mg once-daily, 73 subjects
Method: In a phase 2, open-label, study of bosutinib in subjects with advanced or metastatic breast cancer where bosutinib is given at 400 mg once-daily, 73 total patients were randomized. As of 9 Jun. […] All of the responding patients had ER/PgR+ metastatic disease, but were less heavily pretreated with chemotherapy than typical patients and none had received prior endocrine therapy. […] In that trial, the median PFS was 15 weeks for all patients, 15.6 weeks and 14.9 weeks in ER+ and/or PgR+ and ER+ and/or PgR+, HER2-patients subgroups, respectively. There were 51 ER/PgR+ patients enrolled in the trial and a little more than half had received prior endocrine therapy, out of them 33 patients were ER/PgR+, HER2-. The preliminary safety data available for 73 subjects as of 9 Jun. 2008 are consistent with data from other ongoing studies. TEAEs were most frequently associated with gastrointestinal disorders (diarrhea, 66%; nausea, 55%; vomiting, 47%; abdominal pain, 12%; dyspepsia, 10%), general disorders (fatigue, 26%, asthenia, 19%, peripheral oedema, 11%; pyrexia, 10%), infections and infestations (16%), metabolism disorders (ALT increase, 12%; AST increase, 12%, weight loss, 11%; anorexia, 18%), musculoskeletal disorders (anthralgia, 12%; back pain, 12%), headache (14%), and rash (14%). Out of all of these TEAEs, only gastrointestinal disorders (diarrhea, 64%; nausea, 51%; vomiting, 42%; abdominal pain, 10%), general disorders (fatigue, 16%, asthenia, 14%), metabolism disorders (ALT increase, 11%; AST increase, 10%; anorexia, 15%) and rash (10%) were considered at least possibly related to bosutinib.

## COc1cc(Nc2c(C#N)cnc3cc(OCCCN4CCN(C)CC4)c(OC)cc23)c(Cl)cc1Cl [bosutinib]
clinical; human, in vivo, po
  Mean steady state AUC: 3.66 µg·h/mL
  Mean steady state Cmax: 0.2 µg/mL
  Multiple-dose exposure versus single-dose exposure: 2-3 fold
  Tmax: 3 to 6 h
  half-life: 22 to 25 h
  AUC: 2.58 µg·h/mL
  Cmax: 0.157 µg/mL
clinical; human, in vivo, po, 600 mg
  AUC: 3.36 µg·h/mL
  Cmax: 0.208 µg/mL
clinical; in vivo, po
  Dose limiting toxicities observed: nausea, vomiting, diarrhea, and rash
clinical; subjects with multiple-relapsed solid tumors, oral
  protocol-defined maximum tolerable dose: 500 mg daily
BT474; 10 nM estrogen, read-out: IC50 (uM) E2
  IC50: 2.32 µM
BT474; without estrogen, read-out: IC50 (uM) no E2
  IC50: 2.22 µM
[1]; all TEAEs
  TEAE ALT increase: 12%
  TEAE AST increase: 12%
  TEAE abdominal pain: 12%
  TEAE anorexia: 18%
  TEAE anthralgia: 12%
  TEAE asthenia: 19%
  TEAE back pain: 12%
  TEAE diarrhea: 66%
  TEAE dyspepsia: 10%
  TEAE fatigue: 26%
  TEAE headache: 14%
  TEAE infections and infestations: 16%
  TEAE nausea: 55%
  TEAE peripheral oedema: 11%
  TEAE pyrexia: 10%
  TEAE rash: 14%
  TEAE vomiting: 47%
  TEAE weight loss: 11%
[1]; related TEAEs
  TEAE ALT increase, at least possibly related to bosutinib: 11%
  TEAE AST increase, at least possibly related to bosutinib: 10%
  TEAE abdominal pain, at least possibly related to bosutinib: 10%
  TEAE anorexia, at least possibly related to bosutinib: 15%
  TEAE asthenia, at least possibly related to bosutinib: 14%
  TEAE diarrhea, at least possibly related to bosutinib: 64%
  TEAE fatigue, at least possibly related to bosutinib: 16%
  TEAE nausea, at least possibly related to bosutinib: 51%
  TEAE rash, at least possibly related to bosutinib: 10%
  TEAE vomiting, at least possibly related to bosutinib: 42%
